Assay results: the supplement of paper PMC11451515

Assays:
Assay in all cases: AUC of viability dose-response curve (% viability x log10 dose units); higher = less sensitive
Conditions in all cases: 48 h
P12-Ichikawa = tested on: P12-Ichikawa
Outline: (§1)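 In 1536-well plates, leukemia cells adapted to each medium (500 or 1000 cells/well) were exposed for 48 h at 37°C to library compounds in DMSO across 11 threefold doses, 47 μM down to 0.79 nM. Viability was read by CellTiter-Glo One luminescence and normalised per plate to DMSO and cell-free wells. A four-parameter log-logistic fit over log10 doses was integrated by trapezoidal rule. This yielded the area under the curve, with over-full-viability curves scaled and quality-control failures dropped.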

NOMO1 = tested on: NOMO1
Outline: as §1

SEM cells = tested on: SEM cells
Outline: as §1

[1] = RPMI 5 mM glucose + 10% dialyzed FBS

Structure (SMILES)	AUC of viability dose-response curve (P12-Ichikawa; HPLM + 10% dialyzed FBS)	AUC of viability dose-response curve (P12-Ichikawa; RPMI 5 mM glucose + 10% FBS)	AUC of viability dose-response curve (P12-Ichikawa; [1])	AUC of viability dose-response curve (NOMO1; HPLM + 10% dialyzed FBS)	AUC of viability dose-response curve (NOMO1; RPMI 5 mM glucose + 10% FBS)	AUC of viability dose-response curve (NOMO1; [1])	AUC of viability dose-response curve (SEM cells; HPLM + 10% dialyzed FBS)	AUC of viability dose-response curve (SEM cells; RPMI 5 mM glucose + 10% FBS)	AUC of viability dose-response curve (SEM cells; [1])
COC1=CC=C2/C3=N/CCN3\C(=N/C2=C1OC)NC(=O)C4=CC=CN=C4	457	427	439	427	462	402	452	419	422
CNC(=O)C1=CC=C(C)C(=C1)N2C(=C/C(=C(/Br)C2=O)OCC3=C(F)C=C(F)C=C3)\C	474	466	464	465	456	466	461	465	455
Cc1c(C)c2c(c(C)c1O)CCC(C)(COc1ccc(CC3SC(=O)NC3=O)cc1)O2 (centres undefined)	477	477	462	466	466	454	467	462	471
c1ccc(-c2oc3ncnc(NC[C@@H]4CCCO4)c3c2-c2ccccc2)cc1	461	454	455	454	467	454	468	463	467
CCOc1cc(CC(=O)N[C@@H](CC(C)C)c2ccccc2N2CCCCC2)ccc1C(=O)O	365	373	387	327	310	337	459	432	436
NC/1=N/C(=O)N(/C=N1)[C@@H]2O[C@H](CO)[C@@H](O)[C@H]2O	422	437	428	430	421	396	406	399	322
CON(C)C(=O)N1/N=C(S[C@@]1(CCCN)C2=CC=CC=C2)/C3=CC(=CC=C3F)F	183	177	206	242	211	226	162	171	193
NC(=O)c1ncn([C@@H]2O[C@H](CO)[C@@H](O)[C@H]2O)c1O	464	463	464	465	468	460	473	474	457
OC(CN1CCN(c2cccc(Cl)c2)CC1)C(c1ccccc1)c1ccccc1 (centres undefined)	238	318	307	265	324	341	319	252	257
O=C(/C=C/c1ccc(O)cc1)c1ccc(O)cc1O	454	438	420	437	460	452	443	433	417
C[C@](N)(Cc1ccc(O)c(O)c1)C(=O)O	427	416	398	391	387	405	395	417	432
CCCC1OC2C[C@H]3[C@@H]4CCC5=CC(=O)C=C[C@]5(C)[C@H]4C(O)C[C@]3(C)[C@]2(C(=O)CO)O1 (some centres undefined)	324	290	252	446	460	458	317	304	311
CCOC(=O)/C=C/[C@H](C[C@@H]1CCNC1=O)NC(=O)[C@@H](CC(=O)[C@@H](NC(=O)c1cc(C)on1)C(C)C)Cc1ccc(F)cc1	466	459	450	471	469	440	452	463	454
CCN(c1ccccc1)c1cc(NC)[n+](C)c(C)n1	469	457	470	456	471	468	464	466	475
CN1CCN(CCCN2c3ccccc3Sc3ccc(C(F)(F)F)cc32)CC1	426	423	456	379	357	384	447	451	463
NC(=O)Nc1cc(-c2cccc(F)c2)sc1C(=O)N[C@H]1CCCNC1	345	325	330	314	335	324	188	196	169

Structure (SMILES)	AUC of viability dose-response curve (P12-Ichikawa; HPLM + 10% dialyzed FBS)	AUC of viability dose-response curve (P12-Ichikawa; RPMI 5 mM glucose + 10% FBS)	AUC of viability dose-response curve (P12-Ichikawa; [1])	AUC of viability dose-response curve (NOMO1; HPLM + 10% dialyzed FBS)	AUC of viability dose-response curve (NOMO1; RPMI 5 mM glucose + 10% FBS)	AUC of viability dose-response curve (NOMO1; [1])	AUC of viability dose-response curve (SEM cells; HPLM + 10% dialyzed FBS)	AUC of viability dose-response curve (SEM cells; RPMI 5 mM glucose + 10% FBS)	AUC of viability dose-response curve (SEM cells; [1])
Cn1cc(C[C@@H](N)C(=O)O)c2ccccc21	467	472	469	449	448	440	461	406	467
CC(C)OC1=CC=C2C(=C1)O\C=C(/C2=O)C3=CC=CC=C3	467	465	465	447	435	471	461	460	442
CC(NCCc1ccc(O)cc1)C(O)c1ccc(O)cc1 (centres undefined)	465	469	460	459	446	451	412	452	413
COc1cccc2c1CCCC2CCCN1CCN(C2CCCCC2)CC1 (centres undefined)	469	459	460	462	457	450	427	428	454
CCOC(=O)Nc1ccc(NCc2ccc(F)cc2)nc1N	456	451	464	439	469	469	467	466	461
COc1cc(O)c2c(c1)C(=O)c1cc(C)cc(O)c1C2=O	451	454	446	416	451	446	427	399	414
COC1=CC=C(C=C1O)C/2=C/C(=O)C3=C(O2)C=C(O[C@@H]4O[C@H](CO[C@@H]5O[C@@H](C)[C@H](O)[C@@H](O)[C@H]5O)[C@@H](O)[C@H](O)[C@H]4O)C=C3O	461	463	470	456	460	477	461	453	466
CCOC1=CC=CC=C1N\2C(=O)C3=C(C=CC=C3)\N=C2C(C)N4CCN(CC4)C(=O)COC5=CC=C(Cl)C=C5 (centres undefined)	303	327	320	304	330	357	323	280	297
C#CCN[C@@H]1CCc2ccccc21.CS(=O)(=O)O	463	448	434	436	426	459	445	441	438
OCCn1cc(-c2cnc3nnn(Cc4ccc5ncccc5c4)c3n2)cn1	457	455	459	440	471	456	430	389	430
NC(=O)NO	401	393	367	359	340	347	326	362	332
C=CCc1ccc(O)c(-c2ccc(O)c(CC=C)c2)c1	251	331	319	419	388	382	377	308	345
OCCC#Cc1nc(-c2ccc(F)cc2)c(-c2ccncc2)n1CCCc1ccccc1	476	467	468	463	465	472	475	467	456
CC[C@]1(O)C[C@@H]2CN(CCc3c([nH]c4ccccc34)[C@@](C(=O)OC)(c3cc4c(cc3OC)N(C)[C@H]3[C@@](O)(C(N)=O)[C@H](O)[C@]5(CC)C=CCN6CC[C@]43[C@@H]65)C2)C1	231	218	263	223	259	278	250	217	258
CN1CCN(CCOc2cc(OC3CCOCC3)c3c(Nc4c(Cl)ccc5c4OCO5)ncnc3c2)CC1	410	446	429	428	463	459	416	378	391
